Source: patent publication US11452731B2, “Method of treating and preventing loss of cognition” (ENDORECHERCHE, INC., priority 2009, dated 2022)

Assay: Clinical trial ERC-205: DHEA 50 mg daily versus placebo on hot flushes in postmenopausal women (Example 10)
Assay type: in vivo
Settings: 50 mg
Procedure: Postmenopausal women experiencing moderate or severe hot flushes per week (as determined by a two week diary) were randomized to receive a daily dose of either placebo or 50 mg DHEA. Fifty evaluable participants (25 patients per arm) were treated for four months with a daily assessment of hot flushes recorded in a diary completed by each participant.
Postmenopausal women aged 40 to 70 years with moderate or severe hot flushes per week, as confirmed by a two-week screening hot flush diary were enrolled after signing informed consent. The protocol was approved by the Institutional Review Board (IRB) of Le Centre Hospitalier de l'Université Laval and by Health Canada.
The primary endpoint was the change from Baseline in the weekly frequency of moderate to severe hot flushes at Week 16, after four months of treatment. The objectives also included the change from Baseline in the weekly frequency of all hot flushes and the change from Baseline in the weekly weighted severity score.
The response endpoint is the patient's paper diary which was filled in daily to specify the number and type of hot flushes as follows:
The hot flush diary began as a Screening diary for two weeks prior to randomization whereby patients had to complete the diary daily, recording the number and severity of hot flushes. The patients had to record an average of 50 or more moderate or severe hot flushes per week over the two-week period to be eligible (i.e., at least 100 hot flushes documented on the two week Screening diary).
Once randomized, the patient completed eight, two-week hot flush diaries upon beginning study medication. The diaries had to be filled out on a daily basis. The first diary was completed over the first two weeks and be returned on the two week visit. The second two-week diary was completed over the next two weeks of the first four week treatment period and was returned at the four week visit. At 4, 8, 12 and 16 week visits, two two-week diaries for hot flushes were collected.

[1] = strata 50 to 70 hot flushes per week at screening, Week 16
[2] = strata ≥71 hot flushes per week at screening, Screening (mean of 2 w), baseline
[3] = strata ≥71 hot flushes per week at screening, Week 1
[4] = strata ≥71 hot flushes per week at screening, Week 2
[5] = strata ≥71 hot flushes per week at screening, Week 3
[6] = strata ≥71 hot flushes per week at screening, Week 4
[7] = strata ≥71 hot flushes per week at screening, Week 5
[8] = strata ≥71 hot flushes per week at screening, Week 6
[9] = strata ≥71 hot flushes per week at screening, Week 7
[10] = strata ≥71 hot flushes per week at screening, Week 8
[11] = strata ≥71 hot flushes per week at screening, Week 9
[12] = strata ≥71 hot flushes per week at screening, Week 10
[13] = strata ≥71 hot flushes per week at screening, Week 11
[14] = strata ≥71 hot flushes per week at screening, Week 12
[15] = strata ≥71 hot flushes per week at screening, Week 13

SMILES: C[C@]12CC[C@H](O)CC1=CC[C@@H]1[C@@H]2CC[C@]2(C)C(=O)CC[C@@H]12 [DHEA, dehydroepiandrosterone]
- WEIGHTED SEVERITY SCORE OF HOT FLUSHES PER WEEK (MEAN) (strata 50 to 70 hot flushes per week at screening, Week 15): 83.7
- NUMBER OF ALL HOT FLUSHES PER WEEK (MEAN) [1]: 35.7
- NUMBER OF MODERATE TO SEVERE HOT FLUSHES PER WEEK (MEAN) [1]: 32.7
- WEIGHTED SEVERITY SCORE OF HOT FLUSHES PER WEEK (MEAN) [1]: 81.6
- NUMBER OF ALL HOT FLUSHES PER WEEK (MEAN) [2]: 91.0
- NUMBER OF MODERATE TO SEVERE HOT FLUSHES PER WEEK (MEAN) [2]: 88.5
- WEIGHTED SEVERITY SCORE OF HOT FLUSHES PER WEEK (MEAN) [2]: 241.6
- NUMBER OF ALL HOT FLUSHES PER WEEK (MEAN) [3]: 68.6
- NUMBER OF MODERATE TO SEVERE HOT FLUSHES PER WEEK (MEAN) [3]: 64.1
- WEIGHTED SEVERITY SCORE OF HOT FLUSHES PER WEEK (MEAN) [3]: 175.2
- NUMBER OF ALL HOT FLUSHES PER WEEK (MEAN) [4]: 57.9
- NUMBER OF MODERATE TO SEVERE HOT FLUSHES PER WEEK (MEAN) [4]: 53.5
- WEIGHTED SEVERITY SCORE OF HOT FLUSHES PER WEEK (MEAN) [4]: 150.8
- NUMBER OF ALL HOT FLUSHES PER WEEK (MEAN) [5]: 57.5
- NUMBER OF MODERATE TO SEVERE HOT FLUSHES PER WEEK (MEAN) [5]: 52.5
- WEIGHTED SEVERITY SCORE OF HOT FLUSHES PER WEEK (MEAN) [5]: 149.8
- NUMBER OF ALL HOT FLUSHES PER WEEK (MEAN) [6]: 62.7
- NUMBER OF MODERATE TO SEVERE HOT FLUSHES PER WEEK (MEAN) [6]: 57.8
- WEIGHTED SEVERITY SCORE OF HOT FLUSHES PER WEEK (MEAN) [6]: 166.5
- NUMBER OF ALL HOT FLUSHES PER WEEK (MEAN) [7]: 60.0
- NUMBER OF MODERATE TO SEVERE HOT FLUSHES PER WEEK (MEAN) [7]: 53.2
- WEIGHTED SEVERITY SCORE OF HOT FLUSHES PER WEEK (MEAN) [7]: 154.1
- NUMBER OF ALL HOT FLUSHES PER WEEK (MEAN) [8]: 53.9
- NUMBER OF MODERATE TO SEVERE HOT FLUSHES PER WEEK (MEAN) [8]: 47.6
- WEIGHTED SEVERITY SCORE OF HOT FLUSHES PER WEEK (MEAN) [8]: 138.7
- NUMBER OF ALL HOT FLUSHES PER WEEK (MEAN) [9]: 52.2
- NUMBER OF MODERATE TO SEVERE HOT FLUSHES PER WEEK (MEAN) [9]: 46.7
- WEIGHTED SEVERITY SCORE OF HOT FLUSHES PER WEEK (MEAN) [9]: 137.2
- NUMBER OF ALL HOT FLUSHES PER WEEK (MEAN) [10]: 48.9
- NUMBER OF MODERATE TO SEVERE HOT FLUSHES PER WEEK (MEAN) [10]: 43.3
- WEIGHTED SEVERITY SCORE OF HOT FLUSHES PER WEEK (MEAN) [10]: 129.0
- NUMBER OF ALL HOT FLUSHES PER WEEK (MEAN) [11]: 47.0
- NUMBER OF MODERATE TO SEVERE HOT FLUSHES PER WEEK (MEAN) [11]: 41.1
- WEIGHTED SEVERITY SCORE OF HOT FLUSHES PER WEEK (MEAN) [11]: 121.8
- NUMBER OF ALL HOT FLUSHES PER WEEK (MEAN) [12]: 46.9
- NUMBER OF MODERATE TO SEVERE HOT FLUSHES PER WEEK (MEAN) [12]: 41.6
- WEIGHTED SEVERITY SCORE OF HOT FLUSHES PER WEEK (MEAN) [12]: 121.6
- NUMBER OF ALL HOT FLUSHES PER WEEK (MEAN) [13]: 42.8
- NUMBER OF MODERATE TO SEVERE HOT FLUSHES PER WEEK (MEAN) [13]: 36.4
- WEIGHTED SEVERITY SCORE OF HOT FLUSHES PER WEEK (MEAN) [13]: 110.2
- NUMBER OF ALL HOT FLUSHES PER WEEK (MEAN) [14]: 39.3
- NUMBER OF MODERATE TO SEVERE HOT FLUSHES PER WEEK (MEAN) [14]: 33.1
- WEIGHTED SEVERITY SCORE OF HOT FLUSHES PER WEEK (MEAN) [14]: 98.7
- NUMBER OF ALL HOT FLUSHES PER WEEK (MEAN) [15]: 39.3
- NUMBER OF MODERATE TO SEVERE HOT FLUSHES PER WEEK (MEAN) [15]: 33.9
- WEIGHTED SEVERITY SCORE OF HOT FLUSHES PER WEEK (MEAN) [15]: 102.8
- NUMBER OF ALL HOT FLUSHES PER WEEK (MEAN) (strata ≥71 hot flushes per week at screening, Week 14): 37.3
